Data as given in patent US20030125343A1, “Combinations of receptor tyrosine kinase inhibitor with an a1-acidic glycoprotein binding compound” (priority 1999, published 2003).

What was measured:
KU812 leukemic cells = test: In vivo treatment of nude mice injected s.c. with KU812 leukemic cells; design: species or system CD1 nu/nu mice
Experimental: Seven to 9 week-old female CD1 nu/nu mice purchased at Charles River Breedin Laboratories (Calco, Italy) are kept under standard laboratory conditions according to the guidelines of the National Cancer Institutes, Milan, Italy. This study is approved by the institutional ethics committee for laboratory animals used in experimental research. KU812 bcr/abl positive cell line is injected (50×10^6 cells per animal) subcutaneously in the left flank of the animal. Oral treatment is administered through a syringe connected to a soft plastic tube introduced in esophagus (gavage). Tumor weight (TW) and total weight are monitored every 3-4 days. TW is calculated by the formula TW [mg]=(d^2×D), where d and D are the shortest and longest diameters of the tumor, respectively, measured in millimeters. Treatment is started 1-15 days after leukemic cell injection.
Nude mice are injected s.c. with 50 millions KU812 cells. Treatment is initiated after 1, 8 and 15 days respectively (groups I to III), in the presence of approximately, 50, 300 millions and 1 billion leukemic cells. […] To test this hypothesis mice in group II are treated for 11 or 18 days.
Mice are injected with KU812 cells and treatment is started 11 days later in the presence of an approximate tumor load of 400 mg.

bcr/abl = biological target: T1, bcr/abl (Homo sapiens, UniProt P00519); test: In vitro bcr/abl autophosphorylation in KU812 cells (anti-phosphotyrosine western blot); type: cell-based; settings: erythromycin base 100 μM, STI571 3 μM, AGP 2 mg/ml, 1 hour
T1 construct: Endogenous bcr/abl and tyrosine-phosphorylated bcr/abl are detected with the corresponding mouse monoclonal antibody; BCR N-terminal portion (fusion partner, human BCR P11274); endogenous in cells; host or cells: KU812 (DSMZ ACC 378), in culture or as subcutaneous tumour in CD1 nu/nu mice; the other entry of the earlier key: BCR (P11274, Breakpoint cluster region protein)

KU812 cells = test: Tritiated thymidine uptake in vitro proliferation assay; settings: erythromycin 5 to 30 μM, STI571 1 μM, AGP 1 mg/ml

T1 sequence (P00519 with tags, fused parts or gaps): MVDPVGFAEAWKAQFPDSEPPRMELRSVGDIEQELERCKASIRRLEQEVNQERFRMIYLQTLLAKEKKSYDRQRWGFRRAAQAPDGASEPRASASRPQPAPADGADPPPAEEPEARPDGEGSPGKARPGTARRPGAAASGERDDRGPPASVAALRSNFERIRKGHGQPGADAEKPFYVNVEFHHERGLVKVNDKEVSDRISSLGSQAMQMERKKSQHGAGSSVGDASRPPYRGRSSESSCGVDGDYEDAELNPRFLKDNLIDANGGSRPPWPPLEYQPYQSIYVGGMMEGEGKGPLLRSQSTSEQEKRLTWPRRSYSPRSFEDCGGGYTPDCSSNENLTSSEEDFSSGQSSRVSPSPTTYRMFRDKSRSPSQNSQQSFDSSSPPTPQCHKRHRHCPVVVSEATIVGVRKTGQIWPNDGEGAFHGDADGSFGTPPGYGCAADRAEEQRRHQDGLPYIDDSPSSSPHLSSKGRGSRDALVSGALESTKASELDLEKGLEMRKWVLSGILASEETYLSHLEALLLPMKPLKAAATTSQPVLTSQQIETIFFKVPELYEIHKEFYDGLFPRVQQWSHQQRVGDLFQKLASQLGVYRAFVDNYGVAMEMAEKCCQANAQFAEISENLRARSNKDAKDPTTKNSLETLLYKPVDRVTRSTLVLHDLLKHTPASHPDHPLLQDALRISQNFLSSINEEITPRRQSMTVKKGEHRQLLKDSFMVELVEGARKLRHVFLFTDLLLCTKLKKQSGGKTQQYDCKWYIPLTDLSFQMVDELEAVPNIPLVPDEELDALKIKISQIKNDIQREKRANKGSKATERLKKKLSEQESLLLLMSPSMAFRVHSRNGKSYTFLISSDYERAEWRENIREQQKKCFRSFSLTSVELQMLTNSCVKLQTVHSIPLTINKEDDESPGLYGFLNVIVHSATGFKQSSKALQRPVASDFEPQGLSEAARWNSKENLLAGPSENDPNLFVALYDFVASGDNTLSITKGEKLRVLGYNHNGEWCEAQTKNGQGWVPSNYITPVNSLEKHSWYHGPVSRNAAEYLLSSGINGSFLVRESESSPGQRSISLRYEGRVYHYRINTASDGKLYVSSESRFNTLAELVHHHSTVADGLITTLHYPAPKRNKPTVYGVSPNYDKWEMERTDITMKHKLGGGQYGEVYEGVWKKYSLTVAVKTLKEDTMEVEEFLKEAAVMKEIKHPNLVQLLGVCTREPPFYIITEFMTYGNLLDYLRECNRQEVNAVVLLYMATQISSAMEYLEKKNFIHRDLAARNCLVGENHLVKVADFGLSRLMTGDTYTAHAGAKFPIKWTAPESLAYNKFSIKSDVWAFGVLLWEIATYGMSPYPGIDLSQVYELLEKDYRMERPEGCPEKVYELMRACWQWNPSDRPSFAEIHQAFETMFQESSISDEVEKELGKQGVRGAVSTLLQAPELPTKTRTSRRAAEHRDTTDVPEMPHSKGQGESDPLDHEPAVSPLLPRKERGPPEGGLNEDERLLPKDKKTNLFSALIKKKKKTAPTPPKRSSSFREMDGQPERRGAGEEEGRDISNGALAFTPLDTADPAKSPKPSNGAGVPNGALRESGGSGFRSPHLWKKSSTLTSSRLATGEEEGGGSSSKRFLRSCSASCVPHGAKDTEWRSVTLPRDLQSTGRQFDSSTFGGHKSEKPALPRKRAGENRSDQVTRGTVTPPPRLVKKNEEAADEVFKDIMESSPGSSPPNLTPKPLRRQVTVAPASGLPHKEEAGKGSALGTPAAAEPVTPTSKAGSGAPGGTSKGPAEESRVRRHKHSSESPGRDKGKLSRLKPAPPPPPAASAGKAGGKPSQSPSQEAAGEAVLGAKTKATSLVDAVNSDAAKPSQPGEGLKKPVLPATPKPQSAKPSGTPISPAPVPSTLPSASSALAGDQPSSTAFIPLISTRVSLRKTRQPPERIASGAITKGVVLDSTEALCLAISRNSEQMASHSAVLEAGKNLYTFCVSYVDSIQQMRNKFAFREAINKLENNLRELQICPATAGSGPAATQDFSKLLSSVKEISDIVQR

| Compound | Tumor regression, erythromycin alone (KU812 leukemic cells; control groups, erythromycin in methyl cellulose 5%, not shown) | Effect of erythromycin on STI571 block of bcr/abl kinase activity in presence of AGP (bcr/abl) | Effect of erythromycin on AGP-mediated block of STI571 activity on KU812 proliferation (KU812 cells) | Animals that developed tumor growth, non pretreated mice (KU812 leukemic cells; 160 mg/kg every 8 hours for 11 days starting 24 hours after cell injection) | Cure, group printed as 'group II' (KU812 leukemic cells; 160 mg/kg p.o. every 8 hours for 11 days, sentence follows the group II relapse rate) | Cured animals, controls not pretreated (KU812 leukemic cells; injected with KU812, treated with STI571 24 hours later) | Animals with tumor growth, pretreated mice (KU812 leukemic cells; pretreated with STI571, then 160 mg/kg every 8 hours for 11 days starting 24 hours after injection, p<0.05) | Cured animals, pretreated with STI571 (KU812 leukemic cells; pretreated, injected with KU812, treated 24 hours later, p<0.01 vs controls) | Response of relapsed tumors to re-treatment (KU812 leukemic cells; same 11 day regimen, started when tumors measurable again) | Cure, group I (KU812 leukemic cells; treatment started 1 day after cell injection, 160 mg/kg p.o. every 8 hours for 11 days) | Animals showing disappearance of the tumor / tumor free (KU812 leukemic cells; treatment started 11 days after injection, tumor load about 400 mg, every 8 hours for 18 days) | Number of animals that relapsed (KU812 leukemic cells; treatment started at day 11, 18 days of treatment, relapse between day 25 and 40) [animals] | Animals cured at last day of follow up (day 120) (KU812 leukemic cells; treatment started at day 11, tumor load about 400 mg, 18 days, p<0.01 between groups) | Cure of animals bearing large tumors (KU812 leukemic cells; tumors >400 mg at start of treatment) |
| --- | --- | --- | --- | --- | --- | --- | --- | --- | --- | --- | --- | --- | --- | --- |
| CC[C@H]1OC(=O)[C@H](C)[C@@H](O[C@H]2C[C@@](C)(OC)[C@@H](O)[C@H](C)O2)[C@H](C)[C@@H](O[C@@H]2O[C@H](C)C[C@H](N(C)C)[C@H]2O)[C@](C)(O)C[C@@H](C)C(=O)[C@H](C)[C@@H](O)[C@]1(C)O [erythromycin, Erythromycin] | do not show any evidence of tumor regression | STI571 activity can be restored | restores sensitivity to STI571 with a clear dose response relationship |  |  |  |  |  |  |  |  |  |  |  |
| Cc1ccc(NC(=O)c2ccc(CN3CCN(C)CC3)cc2)cc1Nc1nccc(-c2cccnc2)n1 [STI571] |  |  |  | 0/14 | no cure is ever observed | 16/16 | 7/14 | 8/16 | respond poorly to the new treatment | reproducibly cured | 5/15 | 4 | 1/13 | no animal was cured |
